Source: PMC9246205, “Olmesartan medoxomil self-microemulsifying drug delivery system reverses apoptosis and improves cell adhesion in trinitrobenzene sulfonic acid-induced colitis in rats” (Drug Delivery, 2022)

Legend:
Type in all cases: in vivo, rat
[1] = test system: reduced glutathione (GSH); test: Colonic GSH (ELISA, colon homogenate); details: TNBS-colitic rats, 7 days, mean ± SEM, n = 8
Method: (§1) The rats were food-deprived for a day, and colitis was induced as previously described (Wang et al., [2010]). Rats were anesthetized with ether and then a 5% TNBS (Sigma, St Louis, USA) (100 mg/kg) dissolved in 0.25 mL of 50% ethanol (v/v) (2:1) was administered by a polyethylene catheter introduced rectally to 6–8 cm from the anus. Rats were set in a head-down position for 30 seconds to avoid leakage of the solution (Lu et al., [2017]). Rats were randomly divided into seven groups (n = 8) including the normal control (NC) group, TNBS-colitic (positive control, PC) group, and five TNBS-colitic-treated groups which were orally given sulfasalazine (SSZ, 100 mg/kg/day, a reference treatment for IBD) (Yousefi-Ahmadipour et al., [2020]), low and high doses of OM (OML and OMH: 3.0 and 10.0 mg/kg/day (Nagib et al., [2013])) as a raw drug and as an OMS (OMSL and OMSH). OM was suspended in distilled water containing 0.25% carboxymethyl cellulose (Gorain et al., [2014]; Komesli et al., [2019]). The treatments were given for 7 days starting 4 hours after TNBS administration (Lu et al., [2017]). Rats were evaluated for the colitis activity score. […] The colon was excised, cleaned with ice-cold saline, measured for weight and length, and the macroscopic appearance was evaluated. Parts of the colon were homogenized and activities/levels of myeloperoxidase (MPO), tumor necrosis factor-α (TNF-α), interleukin-6 (IL-6), malondialdehyde (MDA), and reduced glutathione (GSH) were measured. The concentrations of olmesartan in plasma and colonic homogenate were measured by high performance liquid chromatography/mass spectrometry (HPLC/MS). […]
(§2) The colonic samples were homogenized using phosphate-buffered saline and a TissueLyser II (Qiagen) at 4 °C to yield a 10% homogenate. […] The colonic protein content was determined by using the Bradford method (Bradford, 1976). The activities and/or levels of MPO (a marker for neutrophil infiltration), TNF-α, IL-6, MDA, and GSH were measured using ELISA kits (MyBioSource, Inc. CA, USA) according to the manufacturer's guidelines and were expressed/mg protein.

[2] = test system: E-cadherin, Bax, Bcl-2, cleaved caspase-3; test: Western blot of colonic E-cadherin, Bax, Bcl-2 and cleaved caspase-3; details: TNBS-colitic rats, 7 days
Method: (§3) The rats were food-deprived for a day, and colitis was induced as previously described (Wang et al., [2010]). Rats were anesthetized with ether and then a 5% TNBS (Sigma, St Louis, USA) (100 mg/kg) dissolved in 0.25 mL of 50% ethanol (v/v) (2:1) was administered by a polyethylene catheter introduced rectally to 6–8 cm from the anus. Rats were set in a head-down position for 30 seconds to avoid leakage of the solution (Lu et al., [2017]). Rats were randomly divided into seven groups (n = 8) including the normal control (NC) group, TNBS-colitic (positive control, PC) group, and five TNBS-colitic-treated groups which were orally given sulfasalazine (SSZ, 100 mg/kg/day, a reference treatment for IBD) (Yousefi-Ahmadipour et al., [2020]), low and high doses of OM (OML and OMH: 3.0 and 10.0 mg/kg/day (Nagib et al., [2013])) as a raw drug and as an OMS (OMSL and OMSH). OM was suspended in distilled water containing 0.25% carboxymethyl cellulose (Gorain et al., [2014]; Komesli et al., [2019]). The treatments were given for 7 days starting 4 hours after TNBS administration (Lu et al., [2017]). Rats were evaluated for the colitis activity score. At end of the treatment period, blood was collected, and rats were sacrificed. The colon was excised, cleaned with ice-cold saline, measured for weight and length, and the macroscopic appearance was evaluated. Parts of the colon were homogenized and activities/levels of myeloperoxidase (MPO), tumor necrosis factor-α (TNF-α), interleukin-6 (IL-6), malondialdehyde (MDA), and reduced glutathione (GSH) were measured. The concentrations of olmesartan in plasma and colonic homogenate were measured by high performance liquid chromatography/mass spectrometry (HPLC/MS). Samples of the colon were obtained for hematoxylin and eosin (H&E) and immunohistochemical staining (Joo et al., [2015])). All evaluations were made by blinded observers. […]

[3] = test system: tumor necrosis factor-α (TNF-α); test: Colonic TNF-α (ELISA, colon homogenate); details: TNBS-colitic rats, 7 days, mean ± SEM, n = 8
Method: as §1, §2

[4] = test system: caspase-3; test: Colonic caspase-3 immunostaining; details: TNBS-colitic rats, 7 days
Method: (§4) The rats were food-deprived for a day, and colitis was induced as previously described (Wang et al., [2010]). Rats were anesthetized with ether and then a 5% TNBS (Sigma, St Louis, USA) (100 mg/kg) dissolved in 0.25 mL of 50% ethanol (v/v) (2:1) was administered by a polyethylene catheter introduced rectally to 6–8 cm from the anus. Rats were set in a head-down position for 30 seconds to avoid leakage of the solution (Lu et al., [2017]). Rats were randomly divided into seven groups (n = 8) including the normal control (NC) group, TNBS-colitic (positive control, PC) group, and five TNBS-colitic-treated groups which were orally given sulfasalazine (SSZ, 100 mg/kg/day, a reference treatment for IBD) (Yousefi-Ahmadipour et al., [2020]), low and high doses of OM (OML and OMH: 3.0 and 10.0 mg/kg/day (Nagib et al., [2013])) as a raw drug and as an OMS (OMSL and OMSH). OM was suspended in distilled water containing 0.25% carboxymethyl cellulose (Gorain et al., [2014]; Komesli et al., [2019]). The treatments were given for 7 days starting 4 hours after TNBS administration (Lu et al., [2017]). Rats were evaluated for the colitis activity score. At end of the treatment period, blood was collected, and rats were sacrificed. The colon was excised, cleaned with ice-cold saline, measured for weight and length, and the macroscopic appearance was evaluated. Parts of the colon were homogenized and activities/levels of myeloperoxidase (MPO), tumor necrosis factor-α (TNF-α), interleukin-6 (IL-6), malondialdehyde (MDA), and reduced glutathione (GSH) were measured. The concentrations of olmesartan in plasma and colonic homogenate were measured by high performance liquid chromatography/mass spectrometry (HPLC/MS). […]
(§5) Colonic sections were immunohistochemically stained for E-cadherin and Caspase-3 (ab13847; Abcam; 1:500 dilution). […] For MMP-9 immunostaining, the sections were probed with rabbit and mouse monoclonal anti-MMP-9 (1:150 dilution), detected with sheep anti-rabbit or anti-mouse IgG fluorescein isothiocyanate (1:500 dilution), and examined under a fluorescent microscope (Baugh et al., [1999]).

[5] = test system: malondialdehyde (MDA); test: Colonic MDA (ELISA, colon homogenate); details: TNBS-colitic rats, 7 days, mean ± SEM, n = 8
Method: The rats were food-deprived for a day, and colitis was induced as previously described (Wang et al., [2010]). Rats were anesthetized with ether and then a 5% TNBS (Sigma, St Louis, USA) (100 mg/kg) dissolved in 0.25 mL of 50% ethanol (v/v) (2:1) was administered by a polyethylene catheter introduced rectally to 6–8 cm from the anus. Rats were set in a head-down position for 30 seconds to avoid leakage of the solution (Lu et al., [2017]). […] Rats were evaluated for the colitis activity score. […] The colon was excised, cleaned with ice-cold saline, measured for weight and length, and the macroscopic appearance was evaluated. Parts of the colon were homogenized and activities/levels of myeloperoxidase (MPO), tumor necrosis factor-α (TNF-α), interleukin-6 (IL-6), malondialdehyde (MDA), and reduced glutathione (GSH) were measured. The concentrations of olmesartan in plasma and colonic homogenate were measured by high performance liquid chromatography/mass spectrometry (HPLC/MS). […]
The colonic samples were homogenized using phosphate-buffered saline and a TissueLyser II (Qiagen) at 4 °C to yield a 10% homogenate. […] The colonic protein content was determined by using the Bradford method (Bradford, 1976). […]

[6] = test system: matrix metalloproteinase-9 (MMP-9); test: Colonic MMP-9 immunostaining; details: TNBS-colitic rats, 7 days
Method: as §4, §5

[7] = test system: trinitrobenzene sulfonic acid-induced acute colitis; test: Colonic histopathological examination (H&E); details: TNBS-colitic rats, 7 days
Method: as §3, with “[2015])).” for “[2015])). All evaluations were made by blinded observers.”
The colonic parts were fixed in 10% buffered formalin and embedded in paraffin. Sections (3–5 µm) were prepared and stained with H&E. The degree of inflammation was expressed as mild, moderate, or severe (Wirtz et al., [2007]).

[8] = test system: trinitrobenzene sulfonic acid-induced acute colitis; test: Colonic macroscopic examination and colon weight/length ratio in TNBS-induced acute colitis; details: TNBS-colitic rats, 7 days; for Colon weight/length ratio: mean ± SEM, n = 8
Method: The rats were food-deprived for a day, and colitis was induced as previously described (Wang et al., [2010]). Rats were anesthetized with ether and then a 5% TNBS (Sigma, St Louis, USA) (100 mg/kg) dissolved in 0.25 mL of 50% ethanol (v/v) (2:1) was administered by a polyethylene catheter introduced rectally to 6–8 cm from the anus. Rats were set in a head-down position for 30 seconds to avoid leakage of the solution (Lu et al., [2017]). Rats were randomly divided into seven groups (n = 8) including the normal control (NC) group, TNBS-colitic (positive control, PC) group, and five TNBS-colitic-treated groups which were orally given sulfasalazine (SSZ, 100 mg/kg/day, a reference treatment for IBD) (Yousefi-Ahmadipour et al., [2020]), low and high doses of OM (OML and OMH: 3.0 and 10.0 mg/kg/day (Nagib et al., [2013])) as a raw drug and as an OMS (OMSL and OMSH). OM was suspended in distilled water containing 0.25% carboxymethyl cellulose (Gorain et al., [2014]; Komesli et al., [2019]). The treatments were given for 7 days starting 4 hours after TNBS administration (Lu et al., [2017]). Rats were evaluated for the colitis activity score. At end of the treatment period, blood was collected, and rats were sacrificed. The colon was excised, cleaned with ice-cold saline, measured for weight and length, and the macroscopic appearance was evaluated. Parts of the colon were homogenized and activities/levels of myeloperoxidase (MPO), tumor necrosis factor-α (TNF-α), interleukin-6 (IL-6), malondialdehyde (MDA), and reduced glutathione (GSH) were measured. The concentrations of olmesartan in plasma and colonic homogenate were measured by high performance liquid chromatography/mass spectrometry (HPLC/MS). Samples of the colon were obtained for hematoxylin and eosin (H&E) and immunohistochemical staining (Joo et al., [2015])). All evaluations were made by blinded observers.
The colon was measured for weight and length. The degree of colonic damage regarding edema, ulceration, bleeding, and necrosis was expressed as mild, moderate, or severe (Ghia et al., [2006]).

[9] = test system: interleukin-6 (IL-6); test: Colonic IL-6 (ELISA, colon homogenate); details: TNBS-colitic rats, 7 days, mean ± SEM, n = 8
Method: as §1, §2

[10] = test system: E-cadherin; test: Colonic E-cadherin immunostaining; details: TNBS-colitic rats, 7 days
Method: as §4, §5

[11] = test system: trinitrobenzene sulfonic acid-induced acute colitis; test: Disease activity score in TNBS-induced acute colitis; details: TNBS-colitic rats, 7 days, mean ± SEM, n = 8
Method: as §3, with “[2015])).” for “[2015])). All evaluations were made by blinded observers.”
The colitis activity index was measured to evaluate the activity of intestinal inflammation. The scores for weight loss, stool consistency, and fecal blood were calculated to give a disease activity score (DAS) as previously described (Wang et al., [2014]). […]

[12] = test system: myeloperoxidase (MPO); test: Colonic MPO activity (ELISA, colon homogenate); details: TNBS-colitic rats, 7 days, mean ± SEM, n = 8
Method: as §1, §2

[13] = high dose 10.0 mg/kg/day orally

## CCCc1nc(C(C)(C)O)c(C(=O)OCc2oc(=O)oc2C)n1Cc1ccc(-c2ccccc2-c2nnn[nH]2)cc1 [OM, Olmesartan medoxomil]
[1]; [13]
  GSH: 29.03 ± 1.44 # nmol/mg protein
[1]; low dose 3.0 mg/kg/day orally
  GSH: 19.77 ± 0.55 ^ nmol/mg protein
[2]; [13]
  protein expression of colonic E-cadherin, Bax, Bcl-2, cleaved caspase-3 and Bcl-2/Bax ratio (Western blot): moderate improvements
[2]; low dose 3.0 mg/kg/day orally
  protein expression of colonic E-cadherin, Bax, Bcl-2, cleaved caspase-3 and Bcl-2/Bax ratio (Western blot): mild improvement
[3]; [13]
  TNF-α: 51.45 ± 2.47 # pg/mg protein
[3]; low dose 3.0 mg/kg/day orally
  TNF-α: 69.98 ± 3.50 ^ pg/mg protein
[4]; [13]
  colonic caspase-3 expression (immunostaining): moderate improvement
[4]; low dose 3.0 mg/kg/day orally
  colonic caspase-3 expression (immunostaining): mild improvement
[5]; [13]
  MDA: 149.57 ± 2.26 # nmol/mg protein
[5]; low dose 3.0 mg/kg/day orally
  MDA: 221.25 ± 6.23 ^ nmol/mg protein
[6]; [13]
  colonic MMP-9 overexpression (immunostaining): moderate improvement
[6]; low dose 3.0 mg/kg/day orally
  colonic MMP-9 overexpression (immunostaining): mild improvement
[7]; [13]
  colonic histopathological damage (H&E): moderate improvement
[7]; low dose 3.0 mg/kg/day orally
  colonic histopathological damage (H&E): mild improvement
[8]; [13]
  colonic macroscopic appearance (damage): moderate improvement
  Colon weight/length ratio: 121.50 ± 6.91 # mg/cm
[8]; low dose 3.0 mg/kg/day orally
  colonic macroscopic appearance (damage): mild improvement
  Colon weight/length ratio: 176.63 ± 3.49 ^ mg/cm
[9]; [13]
  IL-6: 122.43 ± 4.29 # pg/mg protein
[9]; low dose 3.0 mg/kg/day orally
  IL-6: 160.57 ± 5.73 ^ pg/mg protein
[10]; [13]
  colonic E-cadherin expression (immunostaining): moderate improvement
[10]; low dose 3.0 mg/kg/day orally
  colonic E-cadherin expression (immunostaining): mild improvement
[11]; [13]
  Disease activity score: 3.01 ± 0.25 #
[11]; low dose 3.0 mg/kg/day orally
  Disease activity score: 5.69 ± 0.26 ^
[12]; [13]
  MPO activity: 14.52 ± 0.61 # U/mg protein
[12]; low dose 3.0 mg/kg/day orally
  MPO activity: 20.90 ± 1.06 ^ U/mg protein
